Test results reported in patent EP0889886B1, “NOVEL PHENANTHRIDINES SUBSTITUTED IN THE 6 POSITION” (ALTANA Pharma AG, priority 1996, dated 1997).

Test system: PDE IV
Experiment: Inhibition of PDE IV activity (method of Bauer and Schwabe, adapted to microtiter plates)
Type: biochemical
Conditions: Hemmung der PDE IV-Aktivität
Procedure: Hierbei erfolgt im ersten Schritt die PDE-Reaktion. In einem zweiten Schritt wird das entstandene 5'-Nukleotid durch eine 5'-Nukleotidase des Schlangengiftes von Crotalus Atrox zum ungeladenen Nukleosid gespalten. Im dritten Schritt wird das Nukleosid auf lonenaustauschsäulen vom verbliebenen geladenen Substrat getrennt. Die Säulen werden mit 2 ml 30 mM Ammoniumformiat (pH 6,0) direkt in Minivials eluiert, in die noch 2 ml Szintillatorflüssigkeit zur Zählung gegeben wird.

## CCOc1cc2c(cc1OC)C(c1ccc(N(C)S(=O)(=O)c3ccc(C)cc3)cc1)=N[C@@H]1CCCC[C@H]21 (racemic) [Verbindung 36, (+/-)-cis-9-Ethoxy-8-methoxy-6-[(N-methyl-4-p-toluolsulfonamido)phenyl]-1,2,3,4,4a,10bhexahydrophenanthridin]
  -log IC50: 9.09
